Results on 30 compounds are retold here after PubChem BioAssay AID330 (DTP/NCI, 2004).

Where “and” joins values, the source holds several entries; their conditions need not be identical. Identical values can stand only once. Toxic doses and inconclusive results are not listed.

This assay has as its system P388 leukemia ip, CD2F1 mice, survival T/C. As to the kind of experiment: NCI In Vivo Anticancer Drug Screen. Data for tumor model P388 Leukemia (intraperitoneal) in CD2F1 (CDF1) mice. Conditions: endpoint: median survival time, higher = longer survival. A digest of the protocol:
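Mice carrying the transplanted tumor received test compound or vehicle. Survival was recorded in each group, and the value is the treated-group measurement divided by that of the vehicle-treated control group.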

Where [1] appears, read: dose: 50.0 mg/kg/injection, schedule: Q01DX009 (ip), vehicle: saline with Tween-80.
[2] abbreviates: dose: 100.0 mg/kg/injection, schedule: Q01DX009 (ip), vehicle: saline with Tween-80.
[3] abbreviates: dose: 50.0 mg/kg/injection, schedule: Q01DX005 (ip), vehicle: Klucel (hydroxypropylcellulose) (HPC).
[4] abbreviates: dose: 100.0 mg/kg/injection, schedule: Q01DX005 (ip), vehicle: Klucel (hydroxypropylcellulose) (HPC).
[5] abbreviates: dose: 200.0 mg/kg/injection, schedule: Q01DX005 (ip), vehicle: Klucel (hydroxypropylcellulose) (HPC).
Where [6] appears, read: dose: 100.0 mg/kg/injection, schedule: Q01DX001 (ip), vehicle: Klucel (hydroxypropylcellulose) (HPC).
Where [7] appears, read: dose: 200.0 mg/kg/injection, schedule: Q01DX001 (ip), vehicle: Klucel (hydroxypropylcellulose) (HPC).
The mark [8] stands for this setting: dose: 50.0 mg/kg/injection, schedule: Q01DX005 (ip), vehicle: saline.
The mark [9] stands for this setting: dose: 100.0 mg/kg/injection, schedule: Q01DX005 (ip), vehicle: saline.
[10] abbreviates: dose: 50.0 mg/kg/injection, schedule: Q01DX005 (ip), vehicle: saline with Tween-80.
The mark [11] stands for this setting: dose: 100.0 mg/kg/injection, schedule: Q01DX005 (ip), vehicle: saline with Tween-80.
The mark [12] stands for this setting: dose: 200.0 mg/kg/injection, schedule: Q01DX005 (ip), vehicle: saline with Tween-80.
The mark [13] stands for this setting: dose: 25.0 mg/kg/injection, schedule: Q01DX009 (ip), vehicle: saline.
The mark [14] stands for this setting: dose: 50.0 mg/kg/injection, schedule: Q01DX009 (ip), vehicle: saline.
The mark [15] stands for this setting: dose: 100.0 mg/kg/injection, schedule: Q01DX009 (ip), vehicle: saline.
[16] abbreviates: dose: 200.0 mg/kg/injection, schedule: Q01DX009 (ip), vehicle: saline.
Where [17] appears, read: dose: 60.0 mg/kg/injection, schedule: Q01DX005 (ip), vehicle: saline with Tween-80.
The mark [18] stands for this setting: dose: 120.0 mg/kg/injection, schedule: Q01DX005 (ip), vehicle: saline with Tween-80.
The mark [19] stands for this setting: dose: 240.0 mg/kg/injection, schedule: Q01DX005 (ip), vehicle: saline with Tween-80.

Regarding `O=[N+]([O-])c1ccc(Cl)c2c([N+](=O)[O-])cccc12`, the T/C was 102 % of control under setting [1] and 110 % of control under setting [2].
Take `C=C1C[C@@]23CC[C@@H]4[C@](C)(CC[C@H](O)[C@]4(C)COC(=O)CCC(=O)O)[C@H]2CC[C@@H]1C3`: the T/C runs as follows: under setting [3], 101 % of control; under setting [4], 100 % of control; under setting [5], 99 % of control.
In the same order, the values of `CC(=O)C1=CN(C)c2ccccc2[S@@]1=O` are 103 % of control, 100 % of control and 100 % of control.
On to `CCN(CC)C1=CC(=O)OC1OC` (stereo not drawn), for which the T/C is 95 % of control (dose: 60.0 mg/kg/injection, schedule: Q01DX005 (ip), vehicle: saline) and 94 % of control (dose: 120.0 mg/kg/injection, schedule: Q01DX005 (ip), vehicle: saline).
Consider `CCOC(=O)C1(Br)CC2(C1)CC(Br)(C(=O)OCC)C2` (stereo not drawn), for which the T/C (dose: 100.0 mg/kg/injection, schedule: Q04DX002 (ip), vehicle: saline with Tween-80) was 101 % of control; the T/C (dose: 200.0 mg/kg/injection, schedule: Q04DX002 (ip), vehicle: saline with Tween-80) was 103 % of control; the T/C (dose: 400.0 mg/kg/injection, schedule: Q04DX002 (ip), vehicle: saline with Tween-80) is 100 % of control.
In the case of `COC1C2CC3C4(CCC5C6(C)CCCC53C(C14)N(C)C6)CC21CCC23C4C=C5C6=C(CCC5(CC42)C3O1)C1(C)CC(C6)CN(C)C1` (stereo not drawn), the T/C reads like this: (dose: 12.5 mg/kg/injection, schedule: Q01DX009 (ip), vehicle: Klucel (hydroxypropylcellulose) (HPC)) 91 % of control; (dose: 25.0 mg/kg/injection, schedule: Q01DX009 (ip), vehicle: Klucel (hydroxypropylcellulose) (HPC)) 94 % of control; (dose: 50.0 mg/kg/injection, schedule: Q01DX009 (ip), vehicle: Klucel (hydroxypropylcellulose) (HPC)) 98 % of control.
Turning to `COC(=O)C(C)NC(=O)C(C)NC(=O)C(C)NC(C)=O` (stereo not drawn), the T/C by setting is: under setting [3], 102 % of control; under setting [4], 94 % of control; under setting [5], 100 % of control.
Regarding `CCCCOCN(COCCCC)CC(C)(C)C`, the T/C was 107 % of control under setting [1]; 105 % of control under setting [2]; 109 % of control (dose: 200.0 mg/kg/injection, schedule: Q01DX009 (ip), vehicle: saline with Tween-80).
Consider `Cn1c(N)c(C(=O)Nc2ccccc2)c(=O)n(C)c1=O`, for which the T/C under setting [6] is 87 % of control and the T/C under setting [7] is 88 % of control.
Take `Nc1ncnc2c1ncn2C1OC(COP(=O)(O)OP(=O)(O)OP(=O)(O)O)C(OP(=O)(O)OP(=O)(O)OP(=O)(O)O)C1O` (stereo not drawn) (tested in a mixture with another compound): the T/C (dose: 60.0 mg/kg/injection, schedule: Q01DX005 (ip), vehicle: Klucel (hydroxypropylcellulose) (HPC)) was 93 % of control; the T/C (dose: 120.0 mg/kg/injection, schedule: Q01DX005 (ip), vehicle: Klucel (hydroxypropylcellulose) (HPC)) was 103 % of control; the T/C (dose: 240.0 mg/kg/injection, schedule: Q01DX005 (ip), vehicle: Klucel (hydroxypropylcellulose) (HPC)) is 101 % of control.
On to `O=C(O)CNC(=O)C(Cl)Cl`, for which the T/C is 100 % of control under setting [8]; 100 % of control under setting [9]; 90 % of control (dose: 200.0 mg/kg/injection, schedule: Q01DX005 (ip), vehicle: saline).
Take `COC(=O)C(C)(OCc1ccccc1)C(C)C1CO1` (stereo not drawn): the T/C runs as follows: under setting [10], 100 % of control; under setting [11], 115 % of control; under setting [12], 113 % of control.
With `O=c1[nH]cc(S)c(=O)[nH]1`, the T/C is 105 % of control (dose: 25.0 mg/kg/injection, schedule: Q01DX009 (ip), vehicle: saline with Tween-80); 100 % of control under setting [1]; 100 % of control (dose: 50.0 mg/kg/injection, schedule: Q04DX003 (ip), vehicle: saline with Tween-80); 110 % of control under setting [2]; 100 % of control (dose: 100.0 mg/kg/injection, schedule: Q04DX003 (ip), vehicle: saline with Tween-80).
In the case of `O=C(Nc1ccc(Br)c2c(NC(=O)c3ccccc3)ccc(Br)c12)c1ccccc1`, the T/C (dose: 1.5 mg/kg/injection, schedule: Q01DX009 (ip), vehicle: saline with Tween-80) is 100 % of control; the T/C (dose: 3.0 mg/kg/injection, schedule: Q01DX009 (ip), vehicle: saline with Tween-80) was 90 % of control; the T/C (dose: 6.0 mg/kg/injection, schedule: Q01DX009 (ip), vehicle: saline with Tween-80) is 90 % of control.
In the case of `COc1ccc(-n2c(=O)c(N=Nc3ccc(C)cc3)c(O)n(-c3ccccc3Cl)c2=S)cc1`, the T/C reads like this: (dose: 50.0 mg/kg/injection, schedule: Q01DX001 (ip), vehicle: Klucel (hydroxypropylcellulose) (HPC)) 96 % of control; under setting [6], 99 % of control; under setting [7], 96 % of control.
Turning to `COc1c(C=O)c2c(c(C=O)c1OC)OCO2`, the T/C is, setting by setting: under setting [10], 100 % of control; under setting [11], 104 % of control; under setting [12], 99 % of control.
Turning to `O=[N+]([O-])c1cc(NC(=S)SC2CCCCC2)ccc1Cl`, the T/C was 107 % of control and 108 % of control under setting [13]; 100 % of control and 104 % of control and 93 % of control under setting [14]; 102 % of control and 110 % of control and 90 % of control under setting [15]; 100 % of control and 104 % of control and 122 % of control under setting [16].
With `Cc1ccc(S(=O)(=O)N(Cc2ccc(Cl)cc2)S(=O)(=O)c2ccc(C)cc2)cc1`, the T/C is 110 % of control under setting [13]; 108 % of control under setting [14]; 100 % of control under setting [15]; 100 % of control (dose: 200.0 mg/kg/injection, schedule: Q01DX009 (ip), vehicle: Klucel (hydroxypropylcellulose) (HPC)).
Take `Cc1cc2c(cc1C)NS(=O)(=O)N2`: the T/C runs as follows: under setting [17], 102 % of control; under setting [18], 109 % of control; under setting [19], 102 % of control.
Regarding `CC(=NC(C)C)Nc1ccccc1`, the T/C was 104 % of control under setting [1] and 105 % of control under setting [2].
As for `CCOC(=O)CCC(=O)Nc1ccccc1C#N`, the T/C reads like this: under setting [14], 102 % of control; under setting [15], 93 % of control; under setting [16], 102 % of control.
As to `CN=C(N)N/N=C(\c1ccccc1)c1ccc(F)cc1`, the T/C runs as follows: (dose: 12.5 mg/kg/injection, schedule: Q04DX002 (ip), vehicle: saline with Tween-80) 99 % of control; (dose: 25.0 mg/kg/injection, schedule: Q04DX002 (ip), vehicle: saline with Tween-80) 100 % of control and 111 % of control.
As to `N#CC1CCCC(C#N)N1` (stereo not drawn), the T/C runs as follows: (dose: 6.25 mg/kg/injection, schedule: Q01DX005 (ip), vehicle: saline) 100 % of control; (dose: 12.5 mg/kg/injection, schedule: Q01DX005 (ip), vehicle: saline) 88 % of control; (dose: 25.0 mg/kg/injection, schedule: Q01DX005 (ip), vehicle: saline) 100 % of control.
On to `CCCCCCCCn1nnnc1C(F)(F)F`, for which the T/C under setting [10] is 100 % of control, the T/C under setting [11] is 102 % of control and the T/C under setting [12] was 102 % of control.
Turning to `O=[N+]([O-])c1ccc2c(N3CCC(CCCC4CCN(c5ncnc6cc([N+](=O)[O-])ccc56)CC4)CC3)ncnc2c1`, the T/C was 89 % of control under setting [10], 96 % of control under setting [11] and 100 % of control under setting [12].
With `O=C(CCN1C(=O)c2ccccc2C1=O)Nc1c(I)cc(I)c(C(=O)O)c1I`, the T/C is 104 % of control under setting [17], 106 % of control under setting [18] and 101 % of control under setting [19].
In the same order, the values of `CCOC(=O)c1c(C)cc2ccccn12` are 103 % of control, 103 % of control and 105 % of control.
For `CC(=O)OCC1OC(Nc2[nH]c(=O)nc3occc23)C(OC(C)=O)C(OC(C)=O)C1OC(C)=O` (stereo not drawn), the T/C by setting is: (dose: 100.0 mg/kg/injection, schedule: Q01DX001 (ip), vehicle: saline with Tween-80) 107 % of control; (dose: 200.0 mg/kg/injection, schedule: Q01DX001 (ip), vehicle: saline with Tween-80) 99 % of control; (dose: 400.0 mg/kg/injection, schedule: Q01DX001 (ip), vehicle: saline with Tween-80) 97 % of control.
For `CCC(=O)c1ccc(Oc2c3ccccc3nc3ccccc23)cc1`, the T/C by setting is: under setting [10], 108 % of control; under setting [11], 117 % of control; under setting [12], 110 % of control.
For the compound `CCC1CCC2CCOCN2C1` (stereo not drawn), the T/C runs as follows: under setting [8], 97 % of control; under setting [9], 94 % of control.
